According to US20090030024A1, “THIAZOLES AS FUNGICIDES” (priority 2005, published 2009):

Experiment: logP determination by retention times (calibration with alkan-2-ones)
Conditions: * HPLC reversed-phase C18, 40° C., mobile phase 0.1% aqueous formic acid and acetonitrile, linear gradient 10% to 95% acetonitrile

For `CNc1nc(C)c(-c2ccnc(Nc3cccc(CNC(=O)OC(C)(C)C)c3)n2)s1` [Example 658, tert-butyl-[3-({4-[4-methyl-2-(methylamine)-1,3-thiazol-5-yl]pyrimidin-2-yl}amino)benzyl]carbamate], the logP was 1.99*.

Same assay, conditions: logP, * HPLC reversed-phase C18, 40° C., mobile phase 0.1% aqueous formic acid and acetonitrile, linear gradient 10% to 95% acetonitrile

In order of rising chromatographic logP:
1. COC(=O)Nc1ccc(Nc2nccc(-c3sc(N)nc3C)n2)cc1 [Example 656, methyl-(4-{[4-(2-amino-4-methyl-1,3-thiazol-5-yl)pyrimidin-2-yl]amino}phenyl)carbamate]  1.31
2. CC(=O)Nc1ccc(Nc2nccc(-c3sc(NCC4CCCO4)nc3C)n2)cc1 (centres unmarked) [Example 580, N-{4-[(4-{4-methyl-2-[(tetrahydrofuran-2-ylmethyl)amino]-1,3-thiazol-5-yl}pyrimidin-2-yl)amino]phenyl}acetamide]  1.39
3. Cc1nc(C)c(-c2ccnc(Nc3ccc(N(C)C)cc3)n2)s1 [Example 552, N′-[4-(2,4-dimethyl-1,3-thiazol-5-yl)pyrimidin-2-yl]-N,N-dimethylbenzene-1,4-diamine]  1.41
4. COCC(C)Nc1nc(C)c(-c2ccnc(Nc3ccc(NC(C)=O)cc3)n2)s1 (centres unmarked) [Example 578, N-{4-[(4-{2-[(2-methoxy-1-methylethyl)amino]-4-methyl-1,3-thiazol-5-yl}pyrimidin-2-yl)amino]phenyl}acetamide]  1.43
5. Cc1nc(C2CC2)sc1-c1ccnc(Nc2cccc(CN)c2)n1 [Example 537, N-[3-(aminomethyl)phenyl]-4-(2-cyclopropyl-4-methyl-1,3-thiazol-5-yl)pyrimidine-2-amine]  1.45
6. COCC(C)Nc1nc(C)c(-c2ccnc(Nc3cccc(NC(C)=O)c3)n2)s1 (centres unmarked) [Example 569, N-{3-[(4-{2-[(2-methoxy-1-methylethyl)amino]-4-methyl-1,3-thiazol-5-yl}pyrimidin-2-yl)amino]phenyl}acetamide]  1.47
7. COCC(C)Nc1nc(C)c(-c2ccnc(Nc3ccc(NS(C)(=O)=O)cc3)n2)s1 (centres unmarked) [Example 657, N-{4-[(4-{2-[(2-methoxy-1-methylethyl)amino]-4-methyl-1,3-thiazol-5-yl}pyrimidin-2-yl)amino]phenyl}methanesulphonamide]  1.53
8. COc1ccc(Nc2nccc(-c3sc(NCC4CCCO4)nc3C)n2)cn1 (centres unmarked) [Example 523, N-(6-methoxypyridin-3-yl)-4-{4-methyl-2-[(tetrahydrofuran-2-ylmethyl)amino]-1,3-thiazol-5-yl}pyrimidine-2-amine]  1.57
9. COCC(C)Nc1nc(C)c(-c2ccnc(Nc3cccc(NS(C)(=O)=O)c3)n2)s1 (centres unmarked) [Example 570, N-{3-[(4-{2-[(2-methoxy-1-methylethyl)amino]-4-methyl-1,3-thiazol-5-yl}pyrimidin-2-yl)amino]phenyl}methanesulphonamide]  1.57
10. Cc1nc(C2CC2)sc1-c1ccnc(Nc2ccc(N(C)C)cc2)n1 [Example 555, N′-[4-(2-cyclopropyl-4-methyl-1,3-thiazol-5-yl)pyrimidin-2-yl]-N,N-dimethylbenzene-1,4-diamine]  1.63
11. CSc1nc(C)c(-c2ccnc(Nc3ccc(N(C)C)cc3)n2)s1 [Example 524, N,N-dimethyl-N′-{4-[4-methyl-2-(methylthio)-1,3-thiazol-5-yl]pyrimidin-2-yl}benzene-1,4-diamine]  1.75
12. Cc1nc(C)c(-c2ccnc(Nc3cccc(N(C)C)c3)n2)s1 [Example 551, N′-[4-(2,4-dimethyl-1,3-thiazol-5-yl)pyrimidin-2-yl]-N,N-dimethylbenzene-1,3-diamine]  1.75
13. COCc1nc(C)c(-c2ccnc(Nc3ccc(NC(C)=O)cc3)n2)s1 [Example 544, N-[4-({4-[2-(methoxymethyl)-4-methyl-1,3-thiazol-5-yl]pyrimidin-2-yl}amino)phenyl]acetamide]  1.8
14. CC(=O)N(Cc1cccc(Nc2nccc(-c3sc(C4CC4)nc3C)n2)c1)C(C)=O [Example 621, N-acetyl-N-(3-{[4-(2-cyclopropyl-4-methyl-1,3-thiazol-5-yl)pyrimidin-2-yl]amino}benzyl)acetamide]  1.87
15. COCC(C)Nc1nc(C)c(-c2ccnc(Nc3ccc(F)cc3)n2)s1 (centres unmarked) [Example 488, N-(4-fluorophenyl)-4-{2-[(2-methoxy-1-methylethyl)amino]-4-methyl-1,3-thiazol-5-yl}pyrimidine-2-amine]  2
16. CC(=O)Nc1nc(C)c(-c2ccnc(Nc3ccccc3)n2)s1 [Example 560, N-[5-(2-anilinopyrimidin-4-yl)-4-methyl-1,3-thiazol-2-yl]acetamide]  2.09
17. Cc1nc(NCC2CCCO2)sc1-c1ccnc(Nc2ccc(F)cc2)n1 (centres unmarked) [Example 489, N-(4-fluorophenyl)-4-{4-methyl-2-[(tetrahydrofuran-2-ylmethyl)amino]-1,3-thiazol-5-yl}pyrimidine-2-amine]  2.1
18. Cc1nc(C2CC2)sc1-c1ccnc(Nc2cccc(N(C)C)c2)n1 [Example 554, N′-[4-(2-cyclopropyl-4-methyl-1,3-thiazol-5-yl)pyrimidin-2-yl]-N,N-dimethylbenzene-1,3-diamine]  2.19
19. Cc1nc(C2CCCCC2)sc1-c1ccnc(Nc2ccc(N(C)C)cc2)n1 [Example 553, N′-[4-(2-cyclohexyl-4-methyl-1,3-thiazol-5-yl)pyrimidin-2-yl]-N,N-dimethylbenzene-1,4-diamine]  2.38
20. CC(=O)N(Cc1cccc(N(C(C)=O)c2nccc(-c3sc(C4CC4)nc3C)n2)c1)C(C)=O [Example 622, N-acetyl-N-(3-{acetyl[4-(2-cyclopropyl-4-methyl-1,3-thiazol-5-yl)pyrimidin-2-yl]amino}benzyl)acetamide]  2.39
21. CC(=O)c1cccc(N(C(C)=O)c2nccc(-c3sc(C4CC4)nc3C)n2)c1 [Example 665, N-(3-acetylphenyl)-N-[4-(2-cyclopropyl-4-methyl-1,3-thiazol-5-yl)pyrimidin-2-yl]acetamide]  2.43
22. Cc1nc(C)c(-c2ccnc(Nc3ccc4c(c3)OCO4)n2)s1 [Example 616, N-1,3-benzodioxol-5-yl-4-(2,4-dimethyl-1,3-thiazol-5-yl)pyrimidine-2-amine]  2.44
23. COCc1nc(C)c(-c2ccnc(Nc3ccc4c(c3)OCO4)n2)s1 [Example 620, N-1,3-benzodioxol-5-yl-4-[2-(methoxymethyl)-4-methyl-1,3-thiazol-5-yl]pyrimidine-2-amine]  2.47
24. COc1cc(N(C(C)=O)c2nccc(-c3sc(C(C)C)nc3C)n2)cc(OC)c1OC [Example 666, N-[4-(2-isopropyl-4-methyl-1,3-thiazol-5-yl)pyrimidin-2-yl]-N-(3,4,5-trimethoxyphenyl)acetamide]  2.53
25. COc1ccc(Nc2nccc(-c3sc(SC)nc3C)n2)cn1 [Example 522, N-(6-methoxypyridin-3-yl)-4-[4-methyl-2-(methylthio)-1,3-thiazol-5-yl]pyrimidine-2-amine]  2.67
26. CCc1nc(C)c(-c2ccnc(Nc3ccc4c(c3)OCO4)n2)s1 [Example 618, N-1,3-benzodioxol-5-yl-4-(2-ethyl-4-methyl-1,3-thiazol-5-yl)pyrimidine-2-amine]  2.77
27. COCc1nc(C)c(-c2ccnc(Nc3ccc(F)cc3)n2)s1 [Example 486, N-(4-fluorophenyl)-4-[2-(methoxymethyl)-4-methyl-1,3-thiazol-5-yl]pyrimidine-2-amine]  2.8
28. Cc1nc(C2CC2)sc1-c1ccnc(Nc2cccc(CNC(=O)OC(C)(C)C)c2)n1 [Example 624, tert-butyl-(3-{[4-(2-cyclopropyl-4-methyl-1,3-thiazol-5-yl)pyrimidin-2-yl]amino}benzyl)carbamate]  2.87
29. COCc1nc(C)c(-c2ccnc(Nc3cccc(CNC(=O)OC(C)(C)C)c3)n2)s1 [Example 639, tert-butyl-[3-({4-[2-(methoxymethyl)-4-methyl-1,3-thiazol-5-yl]pyrimidin-2-yl}amino)benzyl]carbamate]  2.94
30. Cc1nc(C2CC2)sc1-c1ccnc(Nc2ccc3c(c2)OCO3)n1 [Example 617, N-1,3-benzodioxol-5-yl-4-(2-cyclopropyl-4-methyl-1,3-thiazol-5-yl)pyrimidine-2-amine]  2.96
31. COCc1nc(C)c(-c2ccnc(Nc3ccc(CNC(=O)OC(C)(C)C)cc3)n2)s1 [Example 643, tert-butyl-[4-({4-[2-(methoxymethyl)-4-methyl-1,3-thiazol-5-yl]pyrimidin-2-yl}amino)benzyl]carbamate]  2.99
32. Cc1nc(C(C)C)sc1-c1ccnc(Nc2ccc3c(c2)OCO3)n1 [Example 619, N-1,3-benzodioxol-5-yl-4-(2-isopropyl-4-methyl-1,3-thiazol-5-yl)pyrimidine-2-amine]  3.25
33. CCc1nc(C)c(-c2ccnc(Nc3ccc(CNC(=O)OC(C)(C)C)cc3)n2)s1 [Example 632, tert-butyl-(4-{[4-(2-ethyl-4-methyl-1,3-thiazol-5-yl)pyrimidin-2-yl]amino}benzyl)carbamate]  3.26
34. Cc1nc(C(C)C)sc1-c1ccnc(Nc2ccc(F)cc2)n1 [Example 485, N-(4-fluorophenyl)-4-(2-isopropyl-4-methyl-1,3-thiazol-5-yl)pyrimidine-2-amine]  3.58
35. Cc1nc(C(C)C)sc1-c1ccnc(Nc2ccc(CNC(=O)OC(C)(C)C)cc2)n1 [Example 633, tert-butyl-(4-{[4-(2-isopropyl-4-methyl-1,3-thiazol-5-yl)pyrimidin-2-yl]amino}benzyl)carbamate]  3.68

Same assay, conditions: logP, ** HPLC reversed-phase C18, 43° C., mobile phase 0.1% aqueous phosphoric acid and acetonitrile, linear gradient 10% to 95% acetonitrile

In order of falling chromatographic logP:
1. Cc1nc(C)c(-c2ccnc(Nc3ccc(CNC(=O)OC(C)(C)C)cc3)n2)s1 [Example 625, tert-butyl-(4-{[4-(2,4-dimethyl-1,3-thiazol-5-yl)pyrimidin-2-yl]amino}benzyl)carbamate]  2.7
2. CC(=O)Nc1nc(C)c(-c2ccnc(Nc3cccc(Cl)c3)n2)s1 [Example 515, N-(5-{2-[(3-chlorophenyl)amino]pyrimidin-4-yl}-4-methyl-1,3-thiazol-2-yl)acetamide]  2.49
